Assay results as given in ChEMBL document CHEMBL3885881, “DrugMatrix”.

Species on record: Rattus norvegicus
Experiment: DrugMatrix - Regimen: Daily Repeat
Type: toxicity, organism-based, Sprague-Dawley
Parameters: regimen Daily Repeat, gender Male, age 6-8 weeks
Conditions: in vivo, po, route oral GAVAGE, vehicle 100 % WATER; for ABSOLUTE BASOPHIL / ABSOLUTE EOSINOPHIL / ABSOLUTE LYMPHOCYTE / ABSOLUTE MONOCYTE / ABSOLUTE SEGMENTED NEUTROPHIL / BASOPHIL / EOSINOPHIL / ERYTHROCYTE COUNT / HEMATOCRIT / HEMOGLOBIN / LEUKOCYTE COUNT / LYMPHOCYTE / MEAN CORPUSCULAR HEMOGLOBIN / MEAN CORPUSCULAR HEMOGLOBIN CONCENTRATION / MEAN CORPUSCULAR VOLUME / MONOCYTE / NEUTROPHIL / NUCLEATED RED BLOOD CELLS / PLATELET COUNT: tissue Blood; for ALANINE AMINOTRANSFERASE / ALBUMIN / ALKALINE PHOSPHATASE / ASPARTATE AMINOTRANSFERASE / BLOOD UREA NITROGEN / CARBON DIOXIDE / CHLORIDE / CHOLESTEROL / CREATINE PHOSPHOKINASE / CREATININE / GLUCOSE / LACTATE DEHYDROGENASE / LIPASE / PHOSPHORUS / POTASSIUM / SODIUM / TOTAL BILIRUBIN / TOTAL PROTEIN / URIC ACID: tissue Plasma
[1] = 0 mg/kg, 72 h, dose level Control, time 3 day
[2] = 0 mg/kg, 120 h, dose level Control, time 5 day
[3] = […], 72 h, dose 0.025 mg/Kg, dose level Low, time 3 day
[4] = […], 72 h, dose 0.25 mg/Kg, dose level High, time 3 day

## C[C@@H]1C[C@@H]([C@H](O)CC2CC(=O)NC(=O)C2)C(=O)[C@@H](C)C1 [CYCLOHEXIMIDE]
[1]
  ABSOLUTE BASOPHIL: 0 CELLS/uL
  ABSOLUTE EOSINOPHIL: 25 CELLS/uL
  ABSOLUTE LYMPHOCYTE: 14357 CELLS/uL
  ABSOLUTE MONOCYTE: 456.33 CELLS/uL
  ABSOLUTE SEGMENTED NEUTROPHIL: 1461.67 CELLS/uL
  BASOPHIL: 0%
  EOSINOPHIL: 0.17%
  ERYTHROCYTE COUNT: 5.85 x10E6/uL
  HEMATOCRIT: 37.62%
  HEMOGLOBIN: 13.87 G/DL
  LEUKOCYTE COUNT: 16.3 x10E3/uL
  LYMPHOCYTE: 88%
  MEAN CORPUSCULAR HEMOGLOBIN: 23.68 pg
  MEAN CORPUSCULAR HEMOGLOBIN CONCENTRATION: 36.88 G/DL
  MEAN CORPUSCULAR VOLUME: 64.23 fL
  MONOCYTE: 2.83%
  NEUTROPHIL: 9%
  NUCLEATED RED BLOOD CELLS: 0 /100WBC
  PLATELET COUNT: 1125.33 x10E3/uL
  ALANINE AMINOTRANSFERASE: 49.67 u/L
  ALBUMIN: 4.23 G/DL
  ALKALINE PHOSPHATASE: 400.83 u/L
  ASPARTATE AMINOTRANSFERASE: 89.17 u/L
  BLOOD UREA NITROGEN: 16 mg/dL
  CARBON DIOXIDE: 31.83 mmol/L
  CHLORIDE: 99 MEQ/L
  CHOLESTEROL: 76 mg/dL
  CREATINE PHOSPHOKINASE: 777.67 u/L
  CREATININE: 0.22 mg/dL
  GLUCOSE: 158.33 mg/dL
  LACTATE DEHYDROGENASE: 186.17 u/L
  LIPASE: 9.33 u/L
  PHOSPHORUS: 12.95 mg/dL
  POTASSIUM: 7.01 MEQ/L
  SODIUM: 141.53 MEQ/L
  TOTAL BILIRUBIN: 0.18 mg/dL
  TOTAL PROTEIN: 6.08 G/DL
  URIC ACID: 1.77 mg/dL
[2]
  ABSOLUTE BASOPHIL: 0 CELLS/uL
  ABSOLUTE EOSINOPHIL: 0 CELLS/uL
  ABSOLUTE LYMPHOCYTE: 8994.5 CELLS/uL
  ABSOLUTE MONOCYTE: 122.33 CELLS/uL
  ABSOLUTE SEGMENTED NEUTROPHIL: 666.5 CELLS/uL
  BASOPHIL: 0%
  EOSINOPHIL: 0%
  ERYTHROCYTE COUNT: 5.74 x10E6/uL
  HEMATOCRIT: 35.17%
  HEMOGLOBIN: 13.28 G/DL
  LEUKOCYTE COUNT: 9.78 x10E3/uL
  LYMPHOCYTE: 92.33%
  MEAN CORPUSCULAR HEMOGLOBIN: 23.15 pg
  MEAN CORPUSCULAR HEMOGLOBIN CONCENTRATION: 37.8 G/DL
  MEAN CORPUSCULAR VOLUME: 61.27 fL
  MONOCYTE: 1.33%
  NEUTROPHIL: 6.33%
  NUCLEATED RED BLOOD CELLS: 0 /100WBC
  PLATELET COUNT: 1117 x10E3/uL
  ALANINE AMINOTRANSFERASE: 47.83 u/L
  ALBUMIN: 4.33 G/DL
  ALKALINE PHOSPHATASE: 414.5 u/L
  ASPARTATE AMINOTRANSFERASE: 77.5 u/L
  BLOOD UREA NITROGEN: 17 mg/dL
  CARBON DIOXIDE: 32.33 mmol/L
  CHLORIDE: 99.33 MEQ/L
  CHOLESTEROL: 76.33 mg/dL
  CREATINE PHOSPHOKINASE: 363.67 u/L
  CREATININE: 0.25 mg/dL
  GLUCOSE: 173.5 mg/dL
  LACTATE DEHYDROGENASE: 129.33 u/L
  LIPASE: 9.17 u/L
  PHOSPHORUS: 11.52 mg/dL
  POTASSIUM: 5.73 MEQ/L
  SODIUM: 143.85 MEQ/L
  TOTAL BILIRUBIN: 0.2 mg/dL
  TOTAL PROTEIN: 6.43 G/DL
  URIC ACID: 0.97 mg/dL
[3]
  ABSOLUTE BASOPHIL: 0 CELLS/uL
  ABSOLUTE EOSINOPHIL: 0 CELLS/uL
  ABSOLUTE LYMPHOCYTE: 12322.33 CELLS/uL
  ABSOLUTE MONOCYTE: 322 CELLS/uL
  ABSOLUTE SEGMENTED NEUTROPHIL: 1589 CELLS/uL
  BASOPHIL: 0%
  EOSINOPHIL: 0%
  ERYTHROCYTE COUNT: 5.38 x10E6/uL
  HEMATOCRIT: 34.5%
  HEMOGLOBIN: 12.73 G/DL
  LEUKOCYTE COUNT: 14.23 x10E3/uL
  LYMPHOCYTE: 86.67%
  MEAN CORPUSCULAR HEMOGLOBIN: 23.63 pg
  MEAN CORPUSCULAR HEMOGLOBIN CONCENTRATION: 36.93 G/DL
  MEAN CORPUSCULAR VOLUME: 64 fL
  MONOCYTE: 2.33%
  NEUTROPHIL: 11%
  NUCLEATED RED BLOOD CELLS: 0 /100WBC
  PLATELET COUNT: 1165.33 x10E3/uL
[4]
  ABSOLUTE BASOPHIL: 0 CELLS/uL
  ABSOLUTE EOSINOPHIL: 0 CELLS/uL
  ABSOLUTE LYMPHOCYTE: 15128.33 CELLS/uL
  ABSOLUTE MONOCYTE: 349 CELLS/uL
  ABSOLUTE SEGMENTED NEUTROPHIL: 956 CELLS/uL
  BASOPHIL: 0%
  EOSINOPHIL: 0%
  ERYTHROCYTE COUNT: 5.63 x10E6/uL
  HEMATOCRIT: 36.7%
  HEMOGLOBIN: 13.27 G/DL
  LEUKOCYTE COUNT: 16.43 x10E3/uL
  LYMPHOCYTE: 91.67%
  MEAN CORPUSCULAR HEMOGLOBIN: 23.6 pg
  MEAN CORPUSCULAR HEMOGLOBIN CONCENTRATION: 36.17 G/DL
  MEAN CORPUSCULAR VOLUME: 65.3 fL
  MONOCYTE: 2%
  NEUTROPHIL: 6.33%
  NUCLEATED RED BLOOD CELLS: 0 /100WBC
  PLATELET COUNT: 1150.67 x10E3/uL
